Patent publication US20220290106A1, “Method for Promoting Cell Proliferation, and Method for Preparing Cell Cluster” (Osaka University, priority 2019, published 2022)

Experiments:
[1] = test system: iPS cell aggregates (iPSCs, D2 strain); assay: Test Example 1: aggregate culture 1 of iPS cells; assay type: cell-based
Description: iPSC aggregates were cultured under the following culture conditions. FIGS. 1A and 1B show the results. Cell: iPSCs (D2 strain, Np43) Medium: StemFit (registered trademark) A[…] (manufactured by Takara Bio Inc.) Culture vessel: 96 well V-bottom plate (MS-9096V manufactured by Sumitomo Bakelite Co., Ltd.) Cell density: 1316 cells/cm^2 (5×10^2 cells/wells) Culture condition: 37° C., 5% CO2 incubator Amount of medium: 150 μl/well Culture period: 7 clays (Methylglyoxal was added once after the medium was replaced on the 4th day of culture (Day 4).) Medium on Day 0: the above medium containing 10 μM ROCK inhibitor Replacement of medium: 150 μl/well Medium for replacement: the above medium containing no ROCK inhibitor Added reagent: Methylglyoxal Solution (product code: […], 1.17 g/mL, 16.25 M, manufactured by Sigma-Aldrich) Methylglyoxal (MG) concentration: 0, 0.1, 1, 10, 100 mM Imaging: photomicrography on the 4th day of culture (Day 4) (before addition of MG) and the 5th, 6th, and 7th day of culture (Day 5, 6, 7) (after addition of MG) FIGS. 1A and 1B show an example of photomicrographs of iPS cell aggregates before the addition of MG (Day 4) and after the addition of MG (Day 5, 6, 7). FIG. 1B is a partially enlarged view of FIG. 1A

[2] = test system: iPS cell aggregates (iPSCs, D2 strain); assay: Test Example 2: aggregate culture 2 of iPSCs (MG 20 minutes, then ROCK inhibitor medium); assay type: cell-based; conditions: MG 1.25-20 mM, treatment time 20 minutes on Day 4, then medium with 10 μM ROCK inhibitor; Day 10 vs Day 4
Description: Cell: iPSCs (D2 strain, Np17, feeder less) Medium: StemFit (registered trademark) A[…] (manufactured by Takara Bio Inc.) Culture vessel: 96 well V-bottom plate (MS-9096V manufactured by Sumitomo Bakelite Co., Ltd.) Cell density: 200 cells/well Culture condition: 37° C., 5% CO2 Amount of medium: 150 μl/well Culture period: 10 days and (subculture) 5 days (15 days in total) Medium on Day 0: the above medium containing 10 μM ROCK inhibitor Replacement of medium: 75 μl/well (daily) Medium for replacement: Day 4 to 10: the above medium containing 10 μM ROCK inhibitor Day 1 to 3: the above medium containing no ROCK inhibitor Methylglyoxal concentration: 0, 1.25, 2.5, 5, 10, 15, 20 mM Added reagent: Methylglyoxal Solution (product code: […], 1.17 g/mL, 16.25 M, manufactured by Sigma-Aldrich) Addition of MG: MG was added 20 minutes before the medium was replaced on the 4th day of culture (Day 4). MG treatment time: 20 minutes Imaging: video observation with BicStudio (manufactured by NIKON ENGINEERING CO., LTD.) after addition of MG

[3] = test system: iPS cell aggregates (iPSCs, D2 strain); assay: Test Example 3: aggregate culture 3 of iPSCs (MG 24 hours, then ROCK inhibitor medium); assay type: cell-based; conditions: MG 1.25-20 mM, treatment time 24 hours from Day 4, then medium with 10 μM ROCK inhibitor; Day 10 vs Day 4
Description: Test Example 3 was performed in the same manner as Test Example 2 (aggregate culture 2 of iPSCs) except that the culture conditions were changed as follows and the procedures shown in FIG. 3 were used. […] Addition of MG: MG was added after the medium was replaced on the 4th day of culture (Day 4). MG treatment time: 24 hours Medium for replacement: Day 4 to 10: the above medium containing 10 μM ROCK inhibitor Day 1 to 3: the above medium containing no ROCK inhibitor

MSC aggregates = assay: Test Example 4: aggregate culture 1 of mesenchymal stem cells, cell proliferation rate; assay type: cell-based
Description: MSC aggregates were cultured under the following culture conditions. The number of cells was counted on Day 4 (before the addition of MG) and on Day 9. Using the resulting number of cells, the cell proliferation rate was obtained from the following formula.
Medium: Mesenchymal Stem Cell Growth Medium 2 (manufactured by Takara Bio Inc.) Culture vessel: Micro-Space Cell Culture Plate (manufactured by Kuraray Co., Ltd), 24 well plate (manufactured by Corning) Culture condition: 37° C., 5% CO2 incubator Amount of medium: 3 mL/well Seeding density: 1.0×10^5 cell/well Culture period: 9 days
(§1) Medium on Day 0: the above medium containing no ROCK inhibitor
Replacement of medium: 1.5 mL/well×3, once every two days (Day 5, 7, 9) Medium for replacement:
(§2) Day 2, 4: the above medium containing no ROCK inhibitor
(§3) Day 5, 7, 9: the above medium containing 10 μM ROCK inhibitor
Added reagent: Methylglyoxal Solution (product code: M0252, 1.17 g/mL, 16.25 M, manufactured by Sigma-Aldrich) Methylglyoxal concentration: 0, 0.0075, 0.01, 0.0125, 0.015, 0.02 mM Addition of MG: MG was added after the medium was replaced on the 4th day of culture (Day 4). MG treatment time: 24 hours
Cell proliferation rate=(the number of cells on Day 9)/(the number of cells on […])

MSCs (monolayer culture) = assay: Monolayer culture of MSCs under the conditions of Test Example 4; assay type: cell-based; conditions: monolayer culture instead of aggregate culture; presence or absence of MG and ROCK inhibitor
Description: Next, MSCs were cultured under the culture conditions of Test Example 4 except that the MSCs were subjected to monolayer culture instead of aggregate culture.

MSC cell aggregates [4] = assay: Test Example 5: aggregate culture 2 of MSCs (MG 20 minutes); assay type: cell-based; conditions: MG 1.25-20 mM, treatment time 20 minutes on Day 4, then 10 μM ROCK inhibitor medium; Day 15 vs Day 4
Description: MSC aggregates were cultured under the following culture conditions. […] Medium: Mesenchymal Stem Cell Growth Medium 2 (manufactured by Takara Bio Inc.) Culture vessel: Micro-Space Cell Culture Plate (manufactured by Kuraray Co., Ltd), 24 well plate (manufactured by Corning) Culture condition: 37° C., 5% CO2 incubator Amount of medium: 3 mL/well Seeding density: 1.0×10^5 cell/well Culture period: 15 days Medium on Day 0: the above medium containing no ROCK inhibitor Replacement of medium: 1.5 mL/well×3, once every two days Medium for replacement: Day 2: the above medium containing no ROCK inhibitor Day 4, 6, 8, 10, 12, 14: the above medium containing 10 μM ROCK inhibitor Added reagent: Methylglyoxal Solution (product code: […], 1.17 g/mL, 16.25 M, manufactured by Sigma-Aldrich) Methylglyoxal concentration: 0, 1.25, 2.5, 5, 10, 15, 20 mM Addition of MG: MG was added 20 minutes before the medium was replaced on the 4th day of culture (Day 4). MG treatment time: 20 minutes Imaging: Day 4 (before addition of MG) and Day 15

MSC cell aggregates [5] = assay: Test Example 6: aggregate culture 3 of MSCs (MG 24 hours); assay type: cell-based; conditions: MG 1.25-20 mM, treatment time 24 hours from Day 4, then 10 μM ROCK inhibitor medium; Day 15 vs Day 4
Description: Test Example 6 was performed in the same manner as Test Example 5 (aggregate culture 2 of MSCs) except that the culture conditions were changed as follows. […] Addition of MG: MG was added after the medium was replaced on the 4th day of culture (Day 4). MG treatment time: 24 hours Medium for replacement: Day 2, 4: the above medium containing no ROCK inhibitor Day 5, 7, 9, 11, 13, 15: the above medium containing 10 μM ROCK inhibitor

HepG2 aggregates = assay: Test Example 8: aggregate culture of HepG2; assay type: cell-based, Human; conditions: MG 1-20 mM for 24 hours from Day 3, then 10 μM ROCK inhibitor medium
Description: HepG2 aggregates were cultured under the following culture conditions. The number of cells was counted on Day 3 (before the addition of MG) and on Day 4, and the cell proliferation rate was confirmed.
Medium: HepG2 Hepatocellular Carcinoma Expansion Media, Human (Cellular Engineering Technologies)
Culture vessel: 24 well plate (manufactured by Coming) Culture condition: 37° C., 5% CO2 incubator Amount of medium: 0.5 mL/well Culture period: 6 days
as §1
Day 2, 3: the above medium containing no ROCK inhibitor
Day 4, 6: the above medium containing 10 μM ROCK inhibitor
Seeding density: 1.0×10^4 cells/cm^2 Replacement of medium: 0.5 mL/well, once every two days Added reagent: Methylglyoxal Solution (manufactured by Sigma-Aldrich) Methylglyoxal concentration: 0, 1, 5, 10, 15, 20 mM Addition of MG: MG was added after the medium was replaced on the 3rd day of culture (Day 3). MG treatment time: 24 hours

MSC cell aggregates [6] = assay: Test Example 7: aggregate culture 4 of MSCs (3-DG or GO); assay type: cell-based; conditions: for cell proliferation rate of the MSC cell aggregate: cells counted Day 4 (before treatment) and Day 9, 24 hours treatment, then 10 μM ROCK inhibitor medium; for cell proliferation rate, dependence on concentration: cells counted Day 4 and Day 9, increasing 3-DG/GO concentration; for periphery of the cell aggregate (effect of promoting cell proliferation): treatment time 24 hours from Day 4, then 10 μM ROCK inhibitor medium, Day 9 vs Day 4
Description: Test Example 7 was performed in the same manner as Test Example 6 (aggregate culture 3 of MSCs) except that the culture conditions were changed as follows.
as §1
Added reagent: 3-Deoxyglucosone (3-DG) (manufactured by Sigma-Aldrich) • Glyoxal Solution (GO) (manufactured by Sigma-Aldrich) Addition of 3-DG or GO: 3-DG or GO was added after the medium was replaced on the 4th day of culture (Day 4). 3-DG or GO treatment time: 24 hours Medium for replacement:
as §2, §3
Similarly to Test Example 4, the number of cells was counted on Day 4 (before the treatment) and on Day 9, and the cell proliferation rate was confirmed. As a result, the cell proliferation rate of the MSC cell aggregate was increased by culturing the MSC cell aggregate that had been treated with 3-DG or GO, like the MG treatment.

SMILES | cell binding properties in the periphery of the cell aggregate, dependence on MG concentration ([1]; MG 0.1, 1, 10, 100 mM) | cell binding properties in the periphery of the cell aggregate ([1]; MG 0.1-100 mM added once on Day 4, compared to control not treated with MG) | periphery (outer circumferential portion) of the cell aggregate, fibrillation state ([1]; MG 0.1-100 mM added once on Day 4, photomicrographs Day 5, 6, 7, compared to control not treated with MG) | periphery of the cell aggregate (effect of promoting cell proliferation) [2] | periphery of the cell aggregate (effect of promoting cell proliferation) [3] | cell proliferation rate (MSC aggregates; MG 0.0075-0.02 mM for 24 hours from Day 4, then 10 μM ROCK inhibitor medium, cell count Day 9, without MG (0 mM) 1.2 times) | cell proliferation rate, medium containing ROCK inhibitor versus medium containing no ROCK inhibitor (MSC aggregates; combination of MG and 10 μM ROCK inhibitor compared with MG without ROCK inhibitor) | cell proliferation rate (MSCs (monolayer culture)) | periphery of the cell aggregate (effect of promoting cell proliferation) (MSC cell aggregates [4]) | periphery of the cell aggregate (effect of promoting cell proliferation) (MSC cell aggregates [5]) | periphery of the cell aggregate (effect of promoting cell proliferation) (HepG2 aggregates) | cell proliferation rate of the MSC cell aggregate (MSC cell aggregates [6]) | cell proliferation rate, dependence on concentration (MSC cell aggregates [6]) | periphery of the cell aggregate (effect of promoting cell proliferation) (MSC cell aggregates [6])
CC(=O)C=O [MG, methylglyoxal] | tended to be further reduced with an increase in the MG concentration | reduced | became non-fibrillated (unraveled) | expand slightly | expand slightly | nearly doubled | higher | did not change significantly | expand slightly | expand slightly | expand slightly |  |  | 
O=CC(=O)C[C@H](O)[C@H](O)CO [3-DG, 3-Deoxyglucosone] |  |  |  |  |  |  |  |  |  |  |  | increased | tended to be higher with an increase in the 3-DG/GO concentration | expand slightly
O=CC=O [GO, glyoxal] |  |  |  |  |  |  |  |  |  |  |  | increased | tended to be higher with an increase in the 3-DG/GO concentration | expand slightly
